Laboratory results reported in patent US20070066616A1, “Inhibitors for extracellular signal-regulated kinase docking domains and uses therefor” (priority 2005, published 2007).

Legend:
Format in all cases: cell-based, human
[1] = tested on: ERK1/2 phosphorylation by MEK1/2; test: ERK1/2 phosphorylation on activating sites (upstream MEK1/2), immunoblot; conditions: HeLa cells, EGF stimulated
Experimental: HeLa cells were pretreated with or without 100 μM of test compounds for 5 min (FIGS. 5A-5B) or 15 min (FIGS. 5C-5E) prior to the addition of epidermal growth factor (EGF or E) to stimulate the ERK pathway or anisomycin (A) to stimulate p38 MAP kinase. In FIGS. 5A-5B HeLa cells were treated with EGF for 5 minutes. […] The far left lane is the control (−) with no EGF. […] The control (C) is EGF only treatment. In FIG. 5B cells pretreated with increasing concentrations of compound 76 were stimulated with EGF. ELK-1 phosphorylation on Ser383 (pELK-1) was measured by immunoblotting. The expression of dually phosphorylated ERK1/2 (ppERK1/2) and a-tubulin as a loading control are also shown. […] The pElk-1 phosphorylation in the presence of the test compounds was compared to the EGF only treatment, which was set at 100%. […] The pRsk-1 phosphorylation in the presence of the test compounds was compared to the EGF only treatment, which was set at 100%. […] The pATF2 phosphorylation in the presence of the test compounds was compared to the anisomycin (A) only treatment, which was set at 100%. The data were reproduced in at least 3 independent experiments.
Prior to harvesting, cells were pre-incubated with the test compounds for 15-20 minutes and then stimulated with EGF or anisomycin to activate the ERK or p38 MAP kinase pathways, respectively. […]

[2] = tested on: HeLa, A549, or SUM-159 cells; test: Colony formation assay, screen of test compounds (FIG. 7A); set-up: dose or concentration left out as unconfirmed; conditions: FIG. 7A screen as printed
Experimental: HeLa, A549, or SUM-159 cells were plated at a low density of ˜200-400 cells per well in the absence or presence of putative ERK docking domain inhibitors. Cell colonies were stained with crystal violet and counted after 6-10 days. In FIG. 7A cells were grown on 10 cm plates in the absence (−) or presence of 100 mM of compound 67, 36, 68, 81, or 76. Colony formation dose response in the presence of the indicated concentrations of compound 76 or 81 for Hela cells […] (FIG. 7B), A549 cells (50 mM) (FIG. 7C), or SUM-159 cells (50 mM) (FIG. 7D).
(§1) Trypsinized cells were plated on 12 or 24 well plates at low densities (200-400 cells per well) in the absence (DMSO only) or presence of test compounds. In additional experiments, cells were first allowed to adhere to the culture dishes for 16 hours prior to treatment with test compounds. The treated cells received a single dose of the test compounds at the beginning of the experiments. The control and treated cells were grown for 8-14 days to allow the formation of colonies. Cells then were fixed for 10 minutes in 4% paraformaldehyde and stained with 0.2% crystal violet (in 20% methanol) for 1-2 minutes. Following several washes with distilled water, the colonies (containing at least 40 cells) were counted. Each individual experiment was repeated on at least 3 separate occasions.
The effects of the active compounds on cell proliferation and survival were tested using a colony formation assay.

[3] = tested on: A549 lung carcinoma cells; test: Colony formation assay, A549 cells; conditions: colony formation dose response (FIG. 7C)
Experimental: HeLa, A549, or SUM-159 cells were plated at a low density of ˜200-400 cells per well in the absence or presence of putative ERK docking domain inhibitors. Cell colonies were stained with crystal violet and counted after 6-10 days. In FIG. 7A cells were grown on 10 cm plates in the absence (−) or presence of 100 mM of compound 67, 36, 68, 81, or 76. Colony formation dose response in the presence of the indicated concentrations of compound 76 or 81 for Hela cells (100 mM) (FIG. 7B), A549 cells (50 mM) (FIG. 7C), or SUM-159 cells (50 mM) (FIG. 7D).
as §1

Question: What does the source list for CCOc1ccc(C=C2SC(=O)N(CCN)C2=O)cc1 [Compound 76]?
Answer: effect on ERK1/2 phosphorylation on activating sites [1]: largely unaffected; effect on colony formation / cell proliferation (in words) [2]: completely inhibited; IC50 [3]: ~25 µM
